Assay results as given in patent US9012446B2, “Amino-oxazines and amino-dihydrothiazine compounds as beta-secretase modulators and methods of use” (Amgen Inc., priority 2010, dated 2015).
Read-outs that look alike come from different tables or passages of the source.

Experiments:
BACE = BACE (Homo sapiens, UniProt P56817); experiment: In vitro enzymatic BACE FRET assay; assay type: biochemical; settings: average IC50, enzyme assay; read-out: BACE 1 FRET assay
Summary of the method: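 Fluorescence […] after Tris quench reports cleavage of a 50 nM quenched peptide substrate over 1 h. Beforehand, 0.2 nM enzyme sits 1 h with inhibitor dilutions. Buffer: 0.05 M acetate pH 4.2, 100 uM genapol, 10% DMSO final.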

Aβ40 = experiment: In vitro BACE cell-based assay (Aβ40 sandwich ELISA, cells stably expressing APP); settings: read-out: HEK cell assay
Summary of the method: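 Read-out is Aβ40 in cell supernatants, quantified by sandwich ELISA (capture 3 h, detection 2 h, both 4° C) with Delfia time-resolved fluorescence. Cells stably expressing APP were dosed across 10 concentrations from 100 μM or 10 μM top, 0.1% DMSO final; IC50 fitted from percent of control.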

[1] = Homo sapiens, HEK293, average IC50

Sequence of BACE (P56817 46-501, species assumed): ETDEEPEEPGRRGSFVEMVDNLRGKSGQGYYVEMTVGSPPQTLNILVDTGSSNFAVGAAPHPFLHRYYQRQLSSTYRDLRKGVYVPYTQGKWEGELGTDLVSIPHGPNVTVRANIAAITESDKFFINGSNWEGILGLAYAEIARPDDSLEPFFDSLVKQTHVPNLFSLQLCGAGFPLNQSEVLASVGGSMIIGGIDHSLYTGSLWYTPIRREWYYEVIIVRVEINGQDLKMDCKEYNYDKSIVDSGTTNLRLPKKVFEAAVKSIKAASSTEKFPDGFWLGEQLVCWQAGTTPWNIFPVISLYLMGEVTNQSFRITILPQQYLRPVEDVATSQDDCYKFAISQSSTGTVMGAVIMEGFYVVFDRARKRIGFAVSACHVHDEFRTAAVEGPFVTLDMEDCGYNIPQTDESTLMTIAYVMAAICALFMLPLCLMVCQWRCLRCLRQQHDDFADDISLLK

| SMILES | IC50 (BACE) [nM] | IC50 (Aβ40; [1]) [nM] | IC50 (Aβ40; average IC50) [nM] |
| --- | --- | --- | --- |
| NC1=N[C@@]2(CCS1)c1cc(-c3cccnc3F)ccc1Oc1cnc(Cl)cc12 [compound 199] | 90.8 | 392 |  |
| NC1=N[C@@]2(CCS1)c1cc(-c3cccnc3F)ccc1Oc1c(F)cc(C3=CCOCC3)cc12 [compound 200] | 2.7 | 12.3 |  |
| CC(C)(F)COc1cc(F)c2c(c1)[C@@]1(CCSC(N)=N1)c1cc(-c3cccnc3F)ccc1O2 [compound 202] | 863 | 2430 |  |
| NC1=N[C@@]2(CO[C@@H]1c1ccccc1)c1cc(-c3cccnc3F)ccc1Oc1cnc(Cl)cc12 [compound 208] | 88.3 |  | 134 |
| C[C@@H]1OC[C@@]2(N=C1N)c1cc(-c3cccnc3F)ccc1Oc1cnc(Cl)cc12 [compound 210] | 90.8 |  | 205 |
| CC(C)C#Cc1cnc2c(c1)[C@]1(COCC(N)=N1)c1cc(-c3cccnc3F)ccc1O2 [compound 213] | 0.6 | 1 |  |
| CC(C)(C)C#Cc1ccc2c(c1)[C@@]1(COCC(N)=N1)c1cc(C3=CCOCC3)cnc1O2 [compound 214] | 3.2 | 6.1 |  |
| NC1=N[C@@]2(COC1)c1cc(-c3cc(F)ccc3F)ccc1Oc1ncc(C3CCOCC3)cc12 [compound 215] | 3.7 | 3.2 |  |
| NC1=N[C@@]2(COC1)c1cc(-c3cc(F)ccc3F)ccc1Oc1ncc(-c3cccnc3)cc12 [compound 216] | 2.3 | 2.8 |  |
| NC1=N[C@@]2(COC1)c1cc(-c3cc(F)ccc3F)ccc1Oc1ncc(-c3ccncc3)cc12 [compound 217] | 3.6 | 4.3 |  |
| NC1=N[C@@]2(COC1)c1cc(-c3cc(F)ccc3F)ccc1Oc1ncc(C3=CCOCC3)cc12 [compound 218] | 1.3 | 2.6 |  |
| CC(C)(C)C#Cc1ccc2c(c1)[C@@]1(COCC(N)=N1)c1cc(-c3ccnc(F)c3)cnc1O2 [compound 219] | 5.9 | 24.8 |  |
| COc1nc(-c2cccnc2)cc2c1Oc1ccc(-c3cccnc3F)cc1C21CCOC(N)=N1 (stereo not drawn) [compound 221] | 49.8 | 119 |  |
| N#Cc1cccc(-c2ccc3c(c2)[C@]2(CCOC(N)=N2)c2cc(-c4ccnc(F)c4)nc(F)c2O3)c1 [compound 222] | 170 | 1580 |  |
| N#Cc1cccc(-c2ccc3c(c2)[C@@]2(CCOC(N)=N2)c2cc(C4=CCCOC4)nc(F)c2O3)c1 [compound 223] | 0.8 | 1.4 |  |
| N#Cc1cccc(-c2ccc3c(c2)[C@]2(CCOC(N)=N2)c2cc(C4=CCCOC4)nc(F)c2O3)c1 [compound 224] | 541 | 982 |  |
| N#Cc1cccc(-c2ccc3c(c2)[C@@]2(CCOC(N)=N2)c2cc(-c4ccnc(F)c4)nc(F)c2O3)c1 [compound 225] | 0.7 | 3 |  |
| NC1=N[C@]2(CCO1)c1cc(-c3cccnc3F)ccc1Oc1c2cc(-c2cccnc2)nc1F [compound 227] | 489 | 101 |  |
| NC1=N[C@@]2(CCO1)c1cc(-c3cncc(F)c3)ccc1Oc1c2cc(C2=CCOCC2)nc1F [compound 228] | 0.3 | 0.7 |  |
| NC1=N[C@]2(CCO1)c1cc(-c3cncc(F)c3)ccc1Oc1c2cc(C2=CCOCC2)nc1F [compound 229] | 149 | 127 |  |
| NC1=N[C@@]2(CCO1)c1cc(-c3cccnc3)ccc1Oc1c2cc(-c2cncc(F)c2)nc1F [compound 231] | 0.8 | 0.3 |  |
| NC1=N[C@]2(CCO1)c1cc(-c3cncc(F)c3)ccc1Oc1c2cc(C2=CCCOC2)nc1F [compound 232] | 793 | 164 |  |
| N#Cc1cccc(-c2ccc3c(c2)[C@]2(CCOC(N)=N2)c2cc(C4=CCOCC4)nc(F)c2O3)c1 [compound 233] | 1580 | 108 |  |
| N#Cc1cccc(-c2ccc3c(c2)[C@@]2(CCOC(N)=N2)c2cc(C4=CCOCC4)nc(F)c2O3)c1 [compound 234] | 0.7 | 0.7 |  |

| SMILES | IC50 (BACE) [nM] | IC50 (Aβ40; [1]) [nM] | IC50 (Aβ40; average IC50) [nM] |
| --- | --- | --- | --- |
| NC1=N[C@@]2(CCO1)c1cc(-c3cncc(F)c3)ccc1Oc1c2cc(C2=CCCOC2)nc1F [compound 236] | 0.8 | 0.5 |  |
| NC1=N[C@]2(CCO1)c1cc(-c3cccnc3F)ccc1Oc1c2cc(C2=CCCOC2)nc1F [compound 238] | 293 | 171 |  |
| NC1=N[C@]2(CCO1)c1cc(-c3cccnc3)ccc1Oc1c2cc(-c2ccnc(F)c2)nc1F [compound 240] | 152 | 206 |  |
| NC1=N[C@@]2(COC1)c1cc(-c3cccnc3F)ccc1Oc1c2cc(Cl)nc1F [compound 242] | 1.2 | 16 |  |
| NC1=N[C@@]2(COC1)c1cc(-c3cccnc3F)ccc1Oc1c2cc(-c2cccnc2)nc1F [compound 243] | 0.3 | 0.5 |  |
| NC1=N[C@]2(COC1)c1cc(-c3cccnc3F)ccc1Oc1c2cc(Cl)nc1F [compound 244] | 481 | 3150 |  |
| NC1=N[C@@]2(COC1)c1cc(-c3cccnc3F)ccc1Oc1c2cc(-c2cncc(F)c2)nc1F [compound 245] | 0.3 | 0.3 |  |
| NC1=N[C@@]2(COC1)c1cc(-c3cccnc3)ccc1Oc1c2cc(C2=CCCOC2)nc1F [compound 246] | 0.4 | 0.1 |  |
| NC1=N[C@@]2(COC1)c1cc(-c3cccnc3F)ccc1Oc1c2cc(C2=CCOCC2)nc1F [compound 247] | 0.6 | 0.8 |  |
| CC(C)(C)COc1cc2c(cn1)Oc1ccc(Br)cc1[C@@]21COCC(N)=N1 [compound 251] | 19.6 | 62.5 |  |
| COc1cc2c(cn1)Oc1ccc(-c3cccc(F)c3)cc1[C@@]21COCC(N)=N1 [compound 252] | 10.6 | 50 |  |
| CCOc1cc2c(cn1)Oc1ccc(-c3cncc(Cl)c3)cc1[C@@]21COCC(N)=N1 [compound 253] | 1 | 1.5 |  |
| CC(C)COc1cc2c(cn1)Oc1ccc(-c3cncc(F)c3)cc1[C@@]21COCC(N)=N1 [compound 254] | 0.5 | 0.9 |  |
| CC(C)COc1cc2c(cn1)Oc1ccc(-c3cccnc3F)cc1[C@@]21COCC(N)=N1 [compound 255] | 0.5 | 1 |  |
| CCOc1cc2c(cn1)Oc1ccc(-c3cccc(F)c3)cc1[C@@]21COCC(N)=N1 [compound 256] | 4.3 | 25.5 |  |
| NC1=N[C@@]2(COC1)c1cc(-c3cncc(F)c3)ccc1Oc1cnc(Cl)cc12 [compound 257] | 32.8 | 42 |  |
| CC(C)Oc1cc2c(cn1)Oc1ccc(-c3cccnc3)cc1[C@@]21COCC(N)=N1 [compound 258] | 2.7 | 4.2 |  |
| CC(C)Oc1cc2c(cn1)Oc1ccc(-c3cccnc3F)cc1[C@@]21COCC(N)=N1 [compound 259] | 1.2 | 4 |  |
| CCOc1cc2c(cn1)Oc1ccc(-c3cccnc3F)cc1[C@@]21COCC(N)=N1 [compound 260] | 1.6 | 2.1 |  |
| NC1=N[C@]2(CCO1)c1cc(-c3cccnc3F)ccc1Oc1ncc(-c3ccnc(F)c3)cc12 [compound 267] | 6670 | 3560 |  |
| NC1=N[C@@]2(CCO1)c1cc(-c3cccnc3F)ccc1Oc1ncc(C3=CCCOC3)cc12 [compound 268] | 11.6 | 21.7 |  |
| NC1=N[C@@]2(CCO1)c1cc(-c3cccnc3F)ccc1Oc1ncc(C3=CCOCC3)cc12 [compound 269] | 12 | 5.6 |  |
| NC1=N[C@]2(CCS1)c1cc(-c3cccnc3F)ccc1Oc1ncc(C3=CCCOC3)cc12 [compound 271] | 1040 | 2540 |  |
| NC1=N[C@@]2(CCS1)c1cc(-c3cccnc3F)ccc1Oc1ncc(C3=CCCOC3)cc12 [compound 272] | 4 | 11 |  |
